Experimental findings from patent publication US20230135136A1, “FGFR TYROSINE KINASE INHIBITORS AND ANTI-PDI AGENTS FOR THE TREATMENT OF UROTHELIAL CARCINOMA” (Janssen Pharmaceutica NV, priority 2020, published 2023) are described below.

Read-outs that look alike come from different tables or passages of the source.

The subject of experiment [1] is CD38+ T cells in the peripheral blood. The settings on record: Arm A, erdafitinib monotherapy, FIG. 7c.
Experimental: In Phase 2, two dosing arms are explored: the erdafitinib monotherapy treatment at the starting oral dose of 8 mg (Arm A), or the combination treatment of erdafitinib and cetrelimab (Arm B).
For phase 1b, blood for immune cell profiling were collected at four time points (C1D1, C1D15, C2D1 and C3D1). For phase 2, blood was collected at six time points (C1D1, C1D15, C2D1, C2D15, C3D1 and C3D15). Blood samples were subjected to flow cytometry analysis on a real time basis. T cell activation is quantified as fold increase in the proportions of 1) CD38+CD3, CD38+CD4, or CD38+CD8 T cells out of lymphocytes or CD3 T cell populations, and 2) CD38+ cells out of CD4+ or CD8+ T cell populations, compared to the baseline proportion levels at C1D1.
(§1) Longitudinal blood samples were analyzed from DL2A (E8J cohort: Erda 8 mg+cetrelimab 240 mg), DL2B (E8RJ cohort: Erda 8 mg 28 days run-in +cetrelimab 240 mg), and DL2 (EJ cohort: Erda 8 mg with the potential dose adjustments to 9 mg depending on phosphate levels measured on C1D15+cetrelimab 240 mg) of phase 1b, and blood samples from Arm A and Arm B of phase 2.
Experiment [2] has the same test system. Nature of the experiment: Phase 1b: flow cytometry immune cell profiling of blood, T cell activation (CD38+ T cells vs C1D1 baseline). The format is in vivo, human. The settings on record: E8RJ cohort, at C1D15, erdafitinib treatment alone; FIG. 4C.
Text: Phase 1b is the dose escalation part of the study wherein two dosing cohorts (Standard Cohorts and Alternative Cohorts) of erdafitinib were explored, while cetrelimab intravenous (IV) dose was fixed. In the Standard Cohorts (DL1, DL2 or DL2A), erdafitinib and cetrelimab start concurrently from Cycle 1 Day 1 (C1D1). In the Alternative Cohorts (DL1B or DL2B), administration of erdafitinib starts on C1D1 but cetrelimab is initiated 1 cycle (4 weeks) later, on Cycle 2 Day 1 (C2D1) (also referred to as a 28-day run-in of erdafitinib).
For phase 1b, blood for immune cell profiling were collected at four time points (C1D1, C1D15, C2D1 and C3D1). […] Blood samples were subjected to flow cytometry analysis on a real time basis. T cell activation is quantified as fold increase in the proportions of 1) CD38+CD3, CD38+CD4, or CD38+CD8 T cells out of lymphocytes or CD3 T cell populations, and 2) CD38+ cells out of CD4+ or CD8+ T cell populations, compared to the baseline proportion levels at C1D1.
as §1

For the molecule `COc1cc(OC)cc(N(CCNC(C)C)c2ccc3ncc(-c4cnn(C)c4)nc3c2)c1` [erdafitinib, N-(3,5-dimethoxyphenyl)-N′-(1-methylethyl)-N-[3-(1-methyl-1H-pyrazol-4-yl)quinoxalin-6-yl]ethane-1,2-diamine], in experiment [1] (compared with Arm B), the “extent of increase of proportion of CD38+CD8 T cells” value is given as “less than that observed in Arm B”. Moreover, the “proportion of CD38+CD8 T cells” value in experiment [1] is listed as “increased with time”; in experiment [2], “dramatically increased”.
